Reference: patent publication US11382328B2, “Rapid drug discovery methods for pathogen inactivation” (priority 2019, dated 2022)

Test system: E. coli strain W3110
Experiment: Synergy assays: Biolog chemical sensitivity panels with Group IB metal, coefficient of drug interaction (CDI) from relative growth
Type: cell-based
Conditions: for CDI (coefficient of drug interaction), copper mixed with biocide: Copper (mM) section; for CDI (coefficient of drug interaction): Gold section of Table 5; for CDI (coefficient of drug interaction), silver + biocide: E. coli
[1] = 1st of 3 copper concentrations (value not shown), 3rd of four biocide concentrations
[2] = 1st of 3 copper concentrations (value not shown), 4th of four biocide concentrations
[3] = 2nd of 3 copper concentrations (value not shown), 3rd of four biocide concentrations
[4] = 2nd of 3 copper concentrations (value not shown), 4th of four biocide concentrations
[5] = 3rd of 3 copper concentrations (value not shown), 3rd of four biocide concentrations
[6] = 3rd of 3 copper concentrations (value not shown), 4th of four biocide concentrations
[7] = first of three gold concentrations (μM, value not given), biocide concentration 3 of 4
[8] = first of three gold concentrations (μM, value not given), biocide concentration 4 of 4
[9] = second of three gold concentrations (μM, value not given), biocide concentration 3 of 4
[10] = second of three gold concentrations (μM, value not given), biocide concentration 4 of 4
[11] = third of three gold concentrations (μM, value not given), biocide concentration 3 of 4
[12] = third of three gold concentrations (μM, value not given), biocide concentration 4 of 4
[13] = Silver 0.5 μM, 3rd of four biocide concentrations
[14] = Silver 0.5 μM, 4th of four biocide concentrations
[15] = Silver 1.0 μM, 3rd of four biocide concentrations
[16] = Silver 1.0 μM, 4th of four biocide concentrations
[17] = Silver 5.0 μM, 3rd of four biocide concentrations
[18] = Silver 5.0 μM, 4th of four biocide concentrations

Row | Compound | CDI (coefficient of drug interaction), copper mixed with biocide [1] | CDI (coefficient of drug interaction), copper mixed with biocide [2] | CDI (coefficient of drug interaction), copper mixed with biocide [3] | CDI (coefficient of drug interaction), copper mixed with biocide [4] | CDI (coefficient of drug interaction), copper mixed with biocide [5] | CDI (coefficient of drug interaction), copper mixed with biocide [6] | CDI (coefficient of drug interaction) [7] | CDI (coefficient of drug interaction) [8] | CDI (coefficient of drug interaction) [9] | CDI (coefficient of drug interaction) [10] | CDI (coefficient of drug interaction) [11] | CDI (coefficient of drug interaction) [12] | CDI (coefficient of drug interaction), silver + biocide [13] | CDI (coefficient of drug interaction), silver + biocide [14] | CDI (coefficient of drug interaction), silver + biocide [15] | CDI (coefficient of drug interaction), silver + biocide [16] | CDI (coefficient of drug interaction), silver + biocide [17] | CDI (coefficient of drug interaction), silver + biocide [18] | further results
1 | poly-L-lysine | Tox | Tox | Tox | Tox | Tox | Tox | Tox | Tox | Tox | Tox | Tox | Tox | Tox | Tox | Tox | Tox | Tox | Tox | CDI (coefficient of drug interaction), copper mixed with biocide (1st of 3 copper concentrations (value not shown), 1st of four biocide concentrations): 1.15; CDI (coefficient of drug interaction), copper mixed with biocide (1st of 3 copper concentrations (value not shown), 2nd of four biocide concentrations): 0.95; CDI (coefficient of drug interaction), copper mixed with biocide (2nd of 3 copper concentrations (value not shown), 1st of four biocide concentrations): 1.03; CDI (coefficient of drug interaction), copper mixed with biocide (2nd of 3 copper concentrations (value not shown), 2nd of four biocide concentrations): 0.96; CDI (coefficient of drug interaction), copper mixed with biocide (3rd of 3 copper concentrations (value not shown), 2nd of four biocide concentrations): 0.59; CDI (coefficient of drug interaction) (first of three gold concentrations (μM, value not given), biocide concentration 1 of 4): 1.07; CDI (coefficient of drug interaction) (first of three gold concentrations (μM, value not given), biocide concentration 2 of 4): 0.98; CDI (coefficient of drug interaction) (second of three gold concentrations (μM, value not given), biocide concentration 1 of 4): 1.08; CDI (coefficient of drug interaction) (second of three gold concentrations (μM, value not given), biocide concentration 2 of 4): 1.06; CDI (coefficient of drug interaction) (third of three gold concentrations (μM, value not given), biocide concentration 1 of 4): 0.93; CDI (coefficient of drug interaction) (third of three gold concentrations (μM, value not given), biocide concentration 2 of 4): 0.88; CDI (coefficient of drug interaction), silver + biocide (Silver 0.5 μM, 1st of four biocide concentrations): 0.92; CDI (coefficient of drug interaction), silver + biocide (Silver 0.5 μM, 2nd of four biocide concentrations): 0.96; CDI (coefficient of drug interaction), silver + biocide (Silver 1.0 μM, 1st of four biocide concentrations): 0.88; CDI (coefficient of drug interaction), silver + biocide (Silver 1.0 μM, 2nd of four biocide concentrations): 0.88
2 | CCCCC(CC)CNC(=N)NC(=N)NCCCCCCNC(=N)NC(=N)NCC(CC)CCCC (stereo not drawn) [alexidine] | Tox | Tox | Tox | Tox | Tox | Tox | Tox | Tox | Tox | Tox | Tox | Tox | Tox | Tox | Tox | Tox | Tox | Tox | –
